From US20090118174A1, “Novel peptides and methods for the treatment of inflammatory disorders” (Auckland Uniservices Limited, priority 2005, published 2009)
Where two headings read alike, the source gives them in different places. No end group written: not given here.

Tests used:
[1] = system: αLβ2-mediated adhesion of Mn++-activated H9 cells to ICAM-1; assay: Cell adhesion assay: adhesion of Mn2+-activated H9 cells to ICAM-1-Fc; assay type: cell-based, human; details: for inhibition of cell adhesion to ICAM-1 (in words): Mn++-activated H9 cells, cell-permeable fusion peptide; for blocking of adhesion (in words): at 100 μM
Protocol: The human T lymphoma cell line H9, was purchased from the American Type Culture Collection, Rockville, Md. It was cultured at 37° C. in 1640 medium supplemented with 50 U/ml penicillin, 50 μg/ml streptomycin, 200 μg/ml L-glutamine, 10% (v/v) FCS and 0.05 mM β-mercaptoethanol. All synthetic peptides were custom made by Mimotopes Pty Ltd., Victoria, Australia. The β2cyt peptides were N-terminally fused during synthesis to biotinylated penetratin (RQIKIWFQNRRMKWKK—Seq ID No. 22) or to a biotinylated D-isomeric form of an R9 polymer (Seq ID No. 32) to render them cell-permeable.
The soluble ICAM-1-Fc chimera was produced using the glutamine synthetase gene amplification system. The extracellular portions of human ICAM-1 fused to the Fc domain of human IgG1 were expressed from the pEE14 vector (kindly provided by Dr Chris Bebbington, Celltech Ltd, UK) in CHO K1 cells as described previously (18).
Lab-Tek 16-well glass slides (Nunc) or flat-bottom 96-well plates (Nunc Maxisorp) were coated overnight at 4° C. with purified ICAM-1-Fc at 10 μg/well in 100 μl of 0.1 M carbonate buffer (pH 9.5). After washing plates were blocked with 100% heat-inactivated FCS, and washed with Hanks balanced salt solution (HBSS) containing 10 mM Hepes, 2 mM Ca^2+ and 2 mM Mn^2+. H9 cells were either left unlabeled or labeled with the fluorescent dye chloromethyl fluorescein diacetate (CMFDA; Molecular Probes, Oregon). For peptide inhibition studies, H9 cells were preincubated with peptide in serum-free medium for 30 min at 37° C. and activated by suspension in an Mn^2+-containing buffer (HBSS: 10 mM Hepes containing 2 mM Ca^2+, 2 mM Mn^2+, and 2% FCS). Human IgG1 Ab (10 μg/ml; Sigma) was added to prevent nonspecific capture of cells to the Fc portion of […]. Cells were checked for viability by trypan blue exclusion, added to wells (10^6cells/well), and incubated for 30 min at 37° C. in a humidified atmosphere of 5% CO2. Non-adherent cells were removed by inverse centrifugation of the plates at 70×g for 5 min followed by gentle pipette washing. The number of unlabeled adherent cells was determined by counting the number of adherent cells in four independent fields at 100× magnification under an inverted microscope. The fluorescence of CMFDA-labeled adherent cells was measured using a VICTOR1420 multilabel counter (Wallac). Representative data are reported as mean±SD of two independent experiments performed in duplicate.

[2] = at 25 μM, Mn++-activated H9 cells to ICAM-1, fused to r9
[3] = at 50 μM, Mn++-activated H9 cells to ICAM-1, fused to r9
[4] = at 6 μM, H9 cells to ICAM-1, r9 fusion

| Substance | inhibition of cell adhesion to ICAM-1 (in words) [1] | inhibition of adhesion [1, 2] [%] | inhibition of adhesion [1, 3] [%] | inhibition of adhesion [1, 4] [%] | blocking of adhesion (in words) ([1]; H9 cells to ICAM-1, r9 fusion) | also measured |
| --- | --- | --- | --- | --- | --- | --- |
| VMNPKFAES (not fully specified (N-terminus); also: biotinylated r9 carrier, attachment not given here) [β2cyt peptide fused to r9 (biotinylated D-isomeric nine-arginine polymer) to render it cell-permeable] | active | ~50 | ~80 | – | – | – |
| r9-NPKF: core talin-binding motif of β2cyt synthesized as fusion with the r9 carrier peptide (not fully specified (N-terminus); printed as r9-NPKF) | – | – | – | 82 | almost completely blocked adhesion | – |
| NPLFKSATTT (not fully specified (N-terminus); also: biotinylated r9 carrier, attachment not given here) [β2cyt peptide fused to r9 (biotinylated D-isomeric nine-arginine polymer) to render it cell-permeable] | active | ~50 | ~80 | – | – | – |
| r9-NPLFKS: β2cyt hexamer synthesized as fusion with the r9 carrier peptide (not fully specified (N-terminus); printed as r9-NPLFKS) | – | – | – | 24 | almost completely blocked adhesion | – |
| YRRFEKEKLKSQWNND | – | – | – | – | – | uptake of penetratin fusion peptide into cells (H9 cells; human cell line H9, biotinylated peptide detected with streptavidin-FITC): readily taken up |
| KALIHLSDLREY | – | – | – | – | – | uptake of penetratin fusion peptide into cells (H9 cells): readily taken up |
